Experimental data as given in doi:10.1101/2024.05.26.595989v1 (biorxiv, 2024).
Read-outs that look alike come from different tables or passages of the source.

Tests used:
[1] = molecular target: T1, PDI (PDIA1), purified / recombinant wild-type human PDI (Homo sapiens, UniProt P07237); test: biochemical
[2] = molecular target: T1, PDI (PDIA1), purified / recombinant wild-type human PDI; test: biochemical; remark: listed apart in the source

T1 sequence (P07237 18-508): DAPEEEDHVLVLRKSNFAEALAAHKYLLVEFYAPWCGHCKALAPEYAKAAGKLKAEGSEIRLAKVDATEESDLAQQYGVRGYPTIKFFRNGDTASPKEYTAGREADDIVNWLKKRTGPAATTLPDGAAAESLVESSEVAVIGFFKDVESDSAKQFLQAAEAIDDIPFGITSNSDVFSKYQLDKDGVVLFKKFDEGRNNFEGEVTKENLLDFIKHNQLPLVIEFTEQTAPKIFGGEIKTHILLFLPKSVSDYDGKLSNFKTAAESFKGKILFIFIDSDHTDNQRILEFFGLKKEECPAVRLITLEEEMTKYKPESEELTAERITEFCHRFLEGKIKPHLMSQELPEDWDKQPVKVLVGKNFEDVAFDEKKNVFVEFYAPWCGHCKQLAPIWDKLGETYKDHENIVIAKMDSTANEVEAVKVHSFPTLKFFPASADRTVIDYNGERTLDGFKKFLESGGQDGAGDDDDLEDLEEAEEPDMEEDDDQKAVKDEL

| SMILES | Kd [1] | Kd [2] |
| --- | --- | --- |
| C[C@]12CC[C@@H]3c4cc(O)c(O)cc4CC[C@H]3[C@@H]1CCC2=O [2-OH-E1, 1,3,5([10])-Estratrien-2,3-diol-17-one] | 24.2 nM |  |
| C[C@]12CC[C@@H]3c4cc(O)c(O)cc4CC[C@H]3[C@@H]1CC[C@@H]2O [2-OH-E2, 1,3,5([10])-estratrien-2,3,17β-triol] |  | 61.3 to 68.3 nM |
